Consider five compounds from US9095136B2, “2-IODO imidazole-derivatives” (BAYER INTELLECTUAL PROPERTY GMBH, priority 2011, dated 2015).

Marks after values point to notes of the source that are not given here.

Data set [1] concerns Pyricularia oryzae. Format: in vivo. The conditions noted are these: rice, protective, 500 ppm, evaluation 7 days after inoculation.
In data set [2] the test system is Puccinia recondita. The data set is described as follows: Example X: Puccinia test (wheat)/protective, comparison. The conditions noted are these: protective, application rate 500 ppm, evaluation 7-9 days after inoculation. Format: in vivo. The protocol: Solvent: 49 parts by weight of N,N-dimethylformamide Emulsifier: 1 part by weight of alkylaryl polyglycol ether To produce a suitable preparation of active compound, 1 part by weight of active compound is mixed with the stated amounts of solvent and emulsifier, and the concentrate is diluted with water to the desired concentration. To test for protective activity, young plants are sprayed with the preparation of active compound at the stated application rate. One day after this treatment, the plants are inoculated with an aqueous spore suspension of Puccinia recondita.

A short description of data set [3]: log P by HPLC on reversed-phase columns (EEC directive 79/831 Annex V.A8). The conditions noted are these: pH 2.7. Format: physicochemical. On the procedure:
The log P values were measured according to EEC directive 79/831 Annex V.A8 by HPLC (High Performance Liquid Chromatography) on reversed-phase columns, using the methods below: […] Calibration was carried out using unbranched alkan-2-ones (having from 3 to 16 carbon atoms) with known log P values (the log P values were determined by the retention times using linear interpolation between two successive alkanones). The lambda maX values were determined in the maxima of the chromatographic signals using the UV spectra from 200 nm to 400 nm.

The test system of data set [4] is Septoria tritici. Kind of data set: Example U: preventative in vivo test with Septoria tritici (leaf blotch disease on wheat). The conditions noted are these: 500 ppm, evaluation 21 to 28 days after inoculation. On the procedure:
The active compounds tested are prepared by homogenization in a mixture of acetone/Tween/DMSO and then diluted with water to the desired active compound concentration. Wheat plants (cultivar “Scipion”), sown in a 50/50 peat/pozzolana soil substrate and cultivated at 22° C. (12 h)/20° C. (12 h), are treated at the 1-leaf stage (height 10 cm) by spraying with the active compound, prepared as above. As a control, plants are treated with the mixture of acetone/Tween/DMSO/water without the active compound. After 24 hours, the plants are inoculated by spraying the leaves with an aqueous suspension of cryogenically preserved Septoria tritici spores.

For the next data set, the system named is Phakopsora pachyrhizi. Kind of data set: Example F: Phakopsora test (soya beans)/protective. In kind it is in vivo. The conditions noted are these: protective, 100 ppm, evaluation 7 days after inoculation. On the procedure:
(§1) Solvents: 24.5 parts by weight of acetone • 24.5 parts by weight of dimethylacetamide Emulsifier: 1 part by weight of alkylaryl polyglycol ether To produce a suitable preparation of active compound, 1 part by weight of active compound is mixed with the stated amounts of solvent and emulsifier, and the concentrate is diluted with water to the desired concentration. To test for protective activity, young plants are sprayed with the preparation of active compound at the stated application rate.

Another data set relates to Pyrenophora teres. Kind of data set: Example R: preventative in vivo test with Pyrenophora teres (net blotch on barley). Conditions: 500 ppm, evaluation 12 days after inoculation. The protocol: The active compounds tested are prepared by homogenization in a mixture of acetone/Tween/DMSO and then diluted with water to the desired active compound concentration. Barley plants (cultivar “Plaisant”), sown in a 50/50 peat/pozzolana soil substrate and cultivated at 22° C. (12 h)/20° C. (12 h), are treated at the 1-leaf stage (height 10 cm) by spraying with the active compound, prepared as above. As a control, plants are treated with the mixture of acetone/Tween/DMSO/water without the active compound. After 24 hours, the plants are inoculated by spraying the leaves with an aqueous suspension of Pyrenophora teres spores.

The test system of the next data set is Alternaria brassicae. The data set is described as follows: Example O: preventative in vivo test with Alternaria brassicae (leaf spot on radish). The conditions noted are these: 500 ppm, evaluation 5 days after inoculation. On the procedure: The active compounds tested are prepared by homogenization in a mixture of acetone/Tween/DMSO and then diluted with water to the desired active compound concentration. Radish plants (cultivar “Pernod Clair”), sown in a 50/50 peat/pozzolana soil substrate and cultivated at 17° C., are treated at the 2-leaf stage by spraying with the active compound, prepared as above. As a control, plants are treated with the mixture of acetone/Tween/DMSO/water without the active compound. After 24 hours, the plants are inoculated by spraying the leaves with an aqueous suspension of Alternaria brassicae spores.

The subject of a further data set is Venturia inaequalis. The data set is described as follows: Example D: Venturia test (apple)/protective. In kind it is in vivo. The conditions noted are these: protective, 100 ppm, evaluation 10 days after inoculation. The protocol: as §1, with “Solvent:” for “Solvents:”, “rate. […] The plants are then placed in a greenhouse at about 21° C. and a relative atmospheric humidity of about 90%.” for “rate.”

The test system of data set [5] is Uromyces appendiculatus. The data set is described as follows: Example W: preventative in vivo test with Uromyces appendiculatus (bean rust). The conditions noted are these: 500 ppm, evaluation 10 days after inoculation. The protocol:
The active compounds tested are prepared by homogenization in a mixture of acetone/Tween/DMSO and then diluted with water to the desired active compound concentration. Bean plants (cultivar “Saxa”), sown in a 50/50 peat/pozzolana soil substrate and cultivated at 24° C., are treated at the 2-leaf stage (height 9 cm) by spraying with the active compound, prepared as above. As a control, plants are treated with the mixture of acetone/Tween/DMSO/water without the active compound. After 24 hours, the plants are inoculated by spraying the leaves with an aqueous suspension of Uromyces appendiculatus spores.

The subject of data set [6] is Puccinia recondita. The data set is described as follows: Example T: preventative in vivo test with Puccinia recondita (brown rust on wheat). Conditions: 500 ppm, evaluation 10 days after inoculation. On the procedure: The active compounds tested are prepared by homogenization in a mixture of acetone/Tween/DMSO and then diluted with water to the desired active compound concentration. Wheat plants (cultivar “Scipion”), sown in a 50/50 peat/pozzolana soil substrate and cultivated at 22° C. (12 h)/20° C. (12 h), are treated at the 1-leaf stage (height 10 cm) by spraying with the active compound, prepared as above. As a control, plants are treated with the mixture of acetone/Tween/DMSO/water without the active compound. After 24 hours, the plants are inoculated by spraying the leaves with an aqueous suspension of Puccinia recondita spores.

The test system of data set [7] is Uromyces appendiculatus. Kind of data set: Example E: Uromyces test (bean)/protective. Conditions: protective, 10 ppm, evaluation 10 days after inoculation. Format: in vivo. On the procedure:
as §1, with “rate. […] The plants are then placed in a greenhouse at about 21° C. and a relative atmospheric humidity of about 90%.” for “rate.”

For a further data set, the system named is Sphaerotheca fuliginea. The data set is described as follows: Example V: preventative in vivo test with Sphaerotheca fuliginea (powdery mildew on cucumber). The conditions noted are these: 500 ppm, evaluation 12 days after inoculation. On the procedure:
The active compounds tested are prepared by homogenization in a mixture of acetone/Tween/DMSO and then diluted with water to the desired active compound concentration. Cucumber plants (cultivar “Vert petit de Paris”), sown in a 50/50 peat/pozzolana soil substrate and cultivated at 24° C., are treated at the Z11 cotyledon stage by spraying with the active compound, prepared as above. As a control, plants are treated with the mixture of acetone/Tween/DMSO/water without the active compound. After 24 hours, the plants are inoculated by spraying the leaves with an aqueous suspension of Sphaerotheca fuliginea spores. The inoculated cucumber plants are incubated at about 20° C./25° C. and a relative atmospheric humidity of 60/70%.

In data set [8] the test system is Pyricularia oryzae. In kind it is in vivo. The conditions noted are these: rice, preventative, 500 ppm, evaluation 6 days after inoculation.
The subject of data set [9] is Uromyces appendiculatus. The data set is described as follows: Example Y: Uromyces test (beans)/protective, comparison. In kind it is in vivo. Conditions: protective, application rate 10 ppm, evaluation 10 days after inoculation. The protocol:
as §1, with “rate. […] The plants are then placed in a greenhouse at about 21° C. and a relative atmospheric humidity of about 90%.” for “rate.”

In data set [10] the test system is Septoria tritici. Kind of data set: Example Z: Septoria tritici test (wheat)/protective, comparison. The conditions noted are these: protective, application rate 250 ppm, evaluation 21 days after inoculation. Format: in vivo. On the procedure: Solvent: 49 parts by weight of N,N-dimethylacetamide Emulsifier: 1 part by weight of alkylaryl polyglycol ether To produce a suitable preparation of active compound, 1 part by weight of active compound or active compound combination is mixed with the stated amounts of solvent and emulsifier, and the concentrate is diluted with water to the desired concentration. To test for protective activity, young plants are sprayed with the preparation of active compound or active compound combination at the stated application rate. After the spray coating has dried on, the plants are sprayed with a spore suspension of Septoria tritici.

In the data set on Pyricularia oryzae [1], `CC(C)(C)C(O)(CCc1ccc(Cl)cc1)Cn1ccnc1I` (stereo not shown) [Example 4] displayed an Eff. % of 80%. This compound also came in with an Efficacy in % in the data set on Puccinia recondita [2] of 95%.
As to `Fc1ccc(C2(Cn3ccnc3I)OC2c2ccccc2Cl)cc1` (stereo not shown) [Example 8], the logP in data set [3] is 3.09^[a]. Further, the Efficacy % stood at 100% in the data set with Septoria tritici [4]; 79% in the data set with Pyrenophora teres; 88% in the data set with Alternaria brassicae; 100% with Uromyces appendiculatus [5]; 97% in the data set with Puccinia recondita [6]; 100% with Sphaerotheca fuliginea. In addition, the Efficacy % with Pyricularia oryzae [8] is listed as 75%. In addition, the results for the Eff. % in the data set with Phakopsora pachyrhizi, with Venturia inaequalis and in the data set with Uromyces appendiculatus [7] were 99%, 100% and 100%, respectively.
In the data set with Uromyces appendiculatus [9], `OC(Cc1ccc(F)cc1)(Cn1ccnc1)C1(Cl)CC1` (stereo not shown) [drawing 19, reference compound] gave an Efficacy in % of 65%.
For `OC(Cc1ccc(F)cc1)(Cn1ccnc1)C1(Cl)CC1` (stereo not shown) [drawing 21, reference compound], in the data set with Septoria tritici [10], the Efficacy in % is on record as 43%.
`CC(C)(C)C(O)(CCc1ccc(Cl)cc1)Cn1ccnc1` (stereo not shown) [reference compound] displayed an Efficacy in % with Puccinia recondita [2] of 70%.
